Measured values published in ChEMBL document CHEMBL3885881, “DrugMatrix”.

Organism: Rattus norvegicus
Assay: DrugMatrix - Regimen: Daily Repeat
Type: toxicity, organism-based, Sprague-Dawley
Parameters: regimen Daily Repeat, gender Male, age 6-8 weeks
Conditions: in vivo, po, route oral GAVAGE, vehicle .5 % CMC
[1] = 0 mg/kg, 72 h, tissue Blood, dose level Control, time 3 day
[2] = 0 mg/kg, 72 h, tissue Plasma, dose level Control, time 3 day
[3] = 0 mg/kg, 120 h, tissue Blood, dose level Control, time 5 day
[4] = 0 mg/kg, 120 h, tissue Plasma, dose level Control, time 5 day
[5] = […], 72 h, tissue Blood, dose 0.77 mg/Kg, dose level Low, time 3 day
[6] = […], 72 h, tissue Blood, dose 7.5 mg/Kg, dose level High, time 3 day

Sequence: IVERMECTIN
- BASOPHIL [1]: 0%
- EOSINOPHIL [1]: 0.33%
- ERYTHROCYTE COUNT [1]: 6.03 x10E6/uL
- HEMATOCRIT [1]: 38.8%
- LEUKOCYTE COUNT [1]: 10.64 x10E3/uL
- LYMPHOCYTE [1]: 83.33%
- MEAN CORPUSCULAR HEMOGLOBIN [1]: 23.64 pg
- MEAN CORPUSCULAR HEMOGLOBIN CONCENTRATION [1]: 36.74 G/DL
- MONOCYTE [1]: 3.33%
- NEUTROPHIL [1]: 13%
- PLATELET COUNT [1]: 1264.4 x10E3/uL
- ALANINE AMINOTRANSFERASE [2]: 38.83 u/L
- ALBUMIN [2]: 3.55 G/DL
- ASPARTATE AMINOTRANSFERASE [2]: 66.17 u/L
- BLOOD UREA NITROGEN [2]: 15.67 mg/dL
- CHOLESTEROL [2]: 76.5 mg/dL
- CREATINE PHOSPHOKINASE [2]: 166.83 u/L
- CREATININE [2]: 0.52 mg/dL
- GLUCOSE [2]: 173.17 mg/dL
- PHOSPHORUS [2]: 11.68 mg/dL
- POTASSIUM [2]: 6.43 MEQ/L
- SODIUM [2]: 149.5 MEQ/L
- TOTAL PROTEIN [2]: 5.93 G/DL
- BASOPHIL [3]: 0%
- EOSINOPHIL [3]: 0%
- ERYTHROCYTE COUNT [3]: 5.88 x10E6/uL
- HEMATOCRIT [3]: 37.87%
- HEMOGLOBIN [3]: 14.48 G/DL
- LEUKOCYTE COUNT [3]: 12.43 x10E3/uL
- LYMPHOCYTE [3]: 84.17%
- MEAN CORPUSCULAR HEMOGLOBIN [3]: 24.65 pg
- MEAN CORPUSCULAR HEMOGLOBIN CONCENTRATION [3]: 38.25 G/DL
- MEAN CORPUSCULAR VOLUME [3]: 64.47 fL
- MONOCYTE [3]: 4.33%
- NEUTROPHIL [3]: 11.5%
- PLATELET COUNT [3]: 1182.33 x10E3/uL
- ALANINE AMINOTRANSFERASE [4]: 38.67 u/L
- ALBUMIN [4]: 3.55 G/DL
- ALKALINE PHOSPHATASE [4]: 342.5 u/L
- ASPARTATE AMINOTRANSFERASE [4]: 63.33 u/L
- BLOOD UREA NITROGEN [4]: 15.5 mg/dL
- CHOLESTEROL [4]: 75.5 mg/dL
- CREATINE PHOSPHOKINASE [4]: 142.5 u/L
- CREATININE [4]: 0.62 mg/dL
- GLUCOSE [4]: 165.17 mg/dL
- PHOSPHORUS [4]: 10.87 mg/dL
- POTASSIUM [4]: 6.85 MEQ/L
- SODIUM [4]: 150.17 MEQ/L
- TOTAL PROTEIN [4]: 5.93 G/DL
- BASOPHIL [5]: 0%
- EOSINOPHIL [5]: 0%
- ERYTHROCYTE COUNT [5]: 5.86 x10E6/uL
- HEMATOCRIT [5]: 37.37%
- HEMOGLOBIN [5]: 14 G/DL
- LEUKOCYTE COUNT [5]: 13.5 x10E3/uL
- LYMPHOCYTE [5]: 81.33%
- MEAN CORPUSCULAR HEMOGLOBIN [5]: 23.97 pg
- MEAN CORPUSCULAR HEMOGLOBIN CONCENTRATION [5]: 37.5 G/DL
- MONOCYTE [5]: 4%
- NEUTROPHIL [5]: 14.67%
- PLATELET COUNT [5]: 1163.33 x10E3/uL
- BASOPHIL [6]: 0%
- EOSINOPHIL [6]: 0%
- ERYTHROCYTE COUNT [6]: 6.06 x10E6/uL
- HEMATOCRIT [6]: 37.9%
- HEMOGLOBIN [6]: 13.7 G/DL
- LEUKOCYTE COUNT [6]: 13 x10E3/uL
- LYMPHOCYTE [6]: 92%
- MEAN CORPUSCULAR HEMOGLOBIN [6]: 22.6 pg
